In patent US20080182830A1, “Agent for Treatment and Prevention of Endometriosis and Uterine Adenomyosis” (priority 2005, published 2008):

Columns and labels:
[1] = tested on: uterine adenomyosis; assay: Therapy of uterine adenomyosis (1), single patient; type: in vivo, human
Source text: A patient having uterine adenomyosis was subjected to the treatment using the therapeutic agent according to the present invention. The patient had been subjected to injection of Leuplin, which was a therapeutic drug for endometriosis at one time per a month continuously for six months. However, the disease was not cured. Then, the uterus was enlarged to have a size corresponding to the third month of pregnancy, and menstrual pain was severe, and a menstrual bleeding was abundant. Moreover, CA125 in the blood indicated 441 units (the normal units are 35 units or less) and CA602 indicated 1025 units (the normal value is 63 units or less). The indicated values were abnormally high.
The menstrual pain and the hypermenorrhea disappeared. Moreover, CA125 in the blood was reduced to be 38 units and CA602 was reduced to 53 units after 60 days from the initiation of the administration. Accordingly, it can be said that the uterine adenomyosis was fully cured.

[2] = tested on: uterine adenomyosis; assay: Therapy of uterine adenomyosis (2), patient series with intrauterine devices; type: in vivo, human
Procedure: An intrauterine device (IUD) containing 600 μg to 900 μg of 3-ethylpyridine was inserted for 6 months […] of each of patients (12 cases) having uterine adenomyosis recurring after the nasal administration or injection of GnRH analogs.

[3] = tested on: chorioallantoic membrane of chicken; conditions: Lin J. et al. 2002; G. Melkonian et al. 2004; cited from earlier work
[4] = tested on: vaginal endometriosis; assay: Therapy of vaginal endometriosis, vaginal ring; type: in vivo, human
Procedure: A patient having endometriosis recurred after operation of the left ovary and Cul-de-Sac endometriosis was subjected to the treatment using the therapeutic agent according to the present invention. In the patient with an induration about 7 cm×about 5 cm in a deep right posterior fornix of the vagina. […] Moreover, menstrual pain, extramenstrual pain, severe lower abdominal pain, defecation pain, and coital pain were recognized. Accordingly, the above-described doughnut-type ring containing 9 mg 3-ethylpyridine was inserted into the posterior vaginal fornix. As a result, four weeks after the insertion, the coital pain, the defecation pain, the extramenstrual lower abdominal pain and low back pain disappeared, and the menstrual pain was reduced. The induration at the right posterior fornix of the vagina was scaled down to 4 cm×2 cm. Then, by continuous treatment, the induration at the right posterior fornix of the vagina was further scaled down to have 2 cm×1 cm. In addition to the above case, with respect to each of patients of other two cases having endometriosis, the pathological endometriosis was confirmed by biopsy and then, a vaginal ring containing 8 to 10 mg of 3-ethylpyridine was inserted into the vagina.

[5] = tested on: ovarian chocolate cyst; assay: Therapy of ovarian chocolate cyst, injection into aspirated cyst; type: in vivo, human
Source text: A patient having ovarian chocolate cyst was subjected to the treatment using the therapeutic agent according to the present invention. In this patient, by transvaginal ultrasonic diagnosis, the cyst having a diameter of 6 cm was recognized in Cul-de-Sac. Moreover, CA125 in the blood indicated 1522 units and CA602 indicated 352 units (the normal value is 63 units or less). The indicated values were abnormally high. It was confirmed that the distance from the vaginal fornix to cyst was within 1 cm, and under observation with a transvaginal ultrasonography, the cyst content was punctured with a needle from the posterior vaginal fornix and was aspirated. Then, the 2 mL ethanol solution containing 2 mg of 3-ethyl pyridine was injected. As a result, the ovarian chocolate cyst disappeared four weeks after the injection. The uterus was scaled down to 2.5 cm. The menstrual pain disappeared. Moreover, CA125 in the blood was lowered to be 52 units and CA602 was lowered to be 61 units.
In addition to the above case, patients of other 12 cases having chocolate cysts were subjected to the following treatment. That is, under a transvaginal ultrasonic guide, the ovarian chocolate cyst having a distance within 10 mm from the posterior vaginal fornix was punctured and the cyst content was aspirated and then the 3 mL ethyl ether solution containing 3 mg of 3-ethylpyridine was injected into the cyst. As a result, in all 12 cases, the ovarian chocolate cyst was scaled down, and at the same time, the menstrual pain disappeared in eight cases, and, improved in three cases. […] In addition, existence of malignant cells in the aspirated cystic content was denied by cytodiagnosis.

[6] = tested on: deep endometriosis; assay: Therapy of deep endometriosis (2), 18 cases, vaginal ring; type: in vivo, human
Procedure: A vaginal ring containing 8 to 10 mg of 3-ethylpyridine was inserted into the vagina of each of deep endometriosis patients (18 cases) for 3 months. As a result, disappearance of pressure pain and induration in Cul-de-Sac was recognized in 9 cases, and improvement thereof was recognized in 7 cases, and nullity thereof was recognized in 2 cases. The menstrual pain disappeared in 4 cases, and improved in 13 cases and null in only one case. A coital pain disappeared in 10 cases and a defecation pain was improved in 7 cases.

[7] = tested on: deep endometriosis; assay: Therapy of deep endometriosis (1), single patient, vaginal rings; type: in vivo, human
Source text: A patient suffered from intensive menstrual pain by deep endometriosis was subjected to the treatment using the therapeutic agent according to the present invention.

[8] = IUD containing 600 μg to 900 μg, 6 months, 12 cases
[9] = IUD-type device containing 825 μg
[10] = IUD-type device containing 825 μg inserted into the uterus
[11] = doughnut-type ring 9 mg, four weeks after insertion
[12] = other two cases, vaginal ring containing 8 to 10 mg
[13] = other 12 cases, 3 mL ethyl ether solution containing 3 mg
[14] = single patient, 2 mL ethanol solution containing 2 mg injected
[15] = vaginal ring 8 to 10 mg for 3 months
[16] = vaginal ring 10 mg 3-ethylpyridine, after the danazol ring
[17] = vaginal ring 1,000 mg danazol for 6 months

CCNC(=O)[C@@H]1CCCN1C(=O)[C@H](CCCNC(=N)N)NC(=O)[C@H](CC(C)C)NC(=O)[C@@H](CC(C)C)NC(=O)[C@H](Cc1ccc(O)cc1)NC(=O)[C@H](CO)NC(=O)[C@H](Cc1c[nH]c2ccccc12)NC(=O)[C@H](Cc1c[nH]cn1)NC(=O)[C@@H]1CCC(=O)N1 [Leuplin, reference compound]
disease (uterine adenomyosis) outcome ([1]; patient, injection one time per month continuously for six months): not cured

CCc1cccnc1 [3-ethylpyridine]
menstrual pain disappeared [2, 8]: eight
menstrual pain improved [2, 8]: four
therapeutic effect [2, 8]: in all the cases, therapeutic effect was recognized
hypermenorrhea disappeared ([2]; IUD containing 600 μg to 900 μg, 6 months, 12 cases recurring after GnRH analogs): nine
growth of chorioallantoic membrane of chicken [3]: inhibits the growth
CA125 in the blood ([1]; IUD-type device 825 μg, after 60 days from initiation, before 441 units, normal 35 units or less): 38 units
CA602 in the blood ([1]; IUD-type device 825 μg, after 60 days from initiation, before 1025 units, normal 63 units or less): 53 units
recurrence after suspension of the treatment [1, 9]: not recognized
uterine adenomyosis outcome [1, 9]: fully cured
hypermenorrhea [1, 10]: disappeared
menstrual pain [1, 10]: disappeared
size of the uterine corpus ([1]; IUD-type device containing 825 μg inserted into the uterus, six months after insertion, before: size of third month of pregnancy): scaled down to a normal size
defecation pain [4, 11]: disappeared
extramenstrual lower abdominal pain and low back pain [4, 11]: disappeared
menstrual pain [4, 11]: reduced
menstrual pain and defecation pain [4, 12]: disappeared in all the cases
vaginal endometriosis [4, 12]: disappeared macroscopically and histologically in all two cases
coital pain ([4]; patient, doughnut-type ring containing 9 mg in posterior vaginal fornix, four weeks after insertion): disappeared
cyst enlarged again after the six months [5, 13]: three
menstrual pain disappeared [5, 13]: eight
menstrual pain improved [5, 13]: three
ovarian chocolate cyst scaled down ([5]; other 12 cases, 3 mL ethyl ether solution containing 3 mg injected into the cyst): 12 cases
CA602 in the blood ([5]; single patient, 2 mg injected, before 352 units, normal 63 units or less): 61 units
CA125 in the blood ([5]; single patient, 2 mg injected, before 1522 units): 52 units
menstrual pain [5, 14]: disappeared
uterus scaled down to [5, 14]: 2.5 cm
ovarian chocolate cyst ([5]; single patient, 2 mL ethanol solution containing 2 mg injected after aspiration, four weeks after injection, cyst diameter 6 cm before): disappeared
ovary chocolate cyst outcome after repeated puncture and injection ([5]; the three cases enlarged again after six months): could be cured
coital pain disappeared [6, 15]: 10 cases
defecation pain improved [6, 15]: 7 cases
improvement of pressure pain and induration in Cul-de-Sac [6, 15]: 7 cases
menstrual pain disappeared [6, 15]: 4 cases
menstrual pain improved [6, 15]: 13 cases
menstrual pain null [6, 15]: one
nullity (no effect) on pressure pain and induration in Cul-de-Sac [6, 15]: 2 cases
disappearance of pressure pain and induration in Cul-de-Sac ([6]; vaginal ring containing 8 to 10 mg for 3 months): 9 cases
induration in Cul-de-Sac [7, 16]: not scaled down
menstrual pain [7, 16]: further decreased
CA125 in the blood ([7]; vaginal ring containing 10 mg 3-ethylpyridine, after the danazol ring, in 3 months, from 620 units): 250 units

C#C[C@]1(O)CC[C@H]2[C@@H]3CCC4=Cc5oncc5C[C@]4(C)[C@H]3CC[C@@]21C [danazol, reference compound]
uterine adenomyosis outcome ([2]; earlier treatment with IUDs containing danazol, the 55 cases): not cured
CA125 in the blood ([7]; patient, vaginal ring containing 1,000 mg danazol for 6 months, from 950 units): 620 units
menstrual pain [7, 17]: reduced but not fully cured
painful induration in Cul-de-Sac [7, 17]: not scaled down
